# Experimental data published in patent US6812231B2, “Benzamidine derivative” (Ajinomoto Co., Inc., priority 1998, dated 2004).
# Experiments:
# [1] = target: T1, activated human blood coagulation factor X (Homo sapiens, UniProt P00742); assay: Determination of activity of inhibiting the activated blood-coagulation factor X (chromogenic substrate, initial rate); format: biochemical; details: tris hydrochloride buffer pH 8.4, room temperature, absorbance 405 nm; for IC50: read-out: Activity of inhibiting activated blood coagulation factor X (pIC50) (converted)
# T1 construct: purchased Enzyme Research Co
# T1 sequence (P00742 235-488 limits assumed): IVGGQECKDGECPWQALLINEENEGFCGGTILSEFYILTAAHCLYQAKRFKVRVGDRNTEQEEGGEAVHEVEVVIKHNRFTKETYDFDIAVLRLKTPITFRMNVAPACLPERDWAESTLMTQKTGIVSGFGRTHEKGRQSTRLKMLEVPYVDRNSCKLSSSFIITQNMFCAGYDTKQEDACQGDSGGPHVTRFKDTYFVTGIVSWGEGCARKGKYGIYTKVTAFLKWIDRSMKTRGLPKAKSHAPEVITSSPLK
# T1 sequence (P00742 41-179 partner limits assumed): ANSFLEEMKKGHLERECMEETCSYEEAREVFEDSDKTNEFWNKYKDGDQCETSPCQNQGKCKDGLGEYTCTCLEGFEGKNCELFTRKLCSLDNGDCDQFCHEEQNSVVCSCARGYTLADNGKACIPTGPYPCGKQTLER
# Experimental: Determination of Activity of Inhibiting the Activated Blood-coagulation Factor X
# 130 μl of 100 mM tris hydrochloride buffer adjusted to pH 8.4 was added to 10 μl of an aqueous solution of a compound to be tested. Then 10 μl of a 0.5 unit/ml solution of activated human blood coagulation factor X (a product of Enzyme Research Co.) in tris hydrochloride of pH 8.4 was added to the resultant mixture. After the incubation at room temperature for 10 minutes, 50 μl of a solution of N-benzoyl-L-isoleucyl-L-glutamyl-glycyl-L-arginyl-P-nitroanilide hydrochloride (a product of Peptide Institute, Inc.) adjusted to 0.8 mM with tris hydrochloride (pH 8.4) was added thereto. The absorbance was determined and then the initial reaction rate was determined. A control was prepared in the same manner as that described above except that the solution of the compound to be tested was replaced with 10 μl of tris hydrochloride buffer adjusted to pH 8.4. The absorbance was determined with MICROPLATE READER Model 3550-UV (a product of BIO RAD) at a wave length of 405 nm at intervals of 15 seconds for 16 minutes.
# human thrombin = target: T2, human thrombin (Homo sapiens, UniProt P00734); assay: Determination of thrombin-inhibiting activity (chromogenic substrate S-2238, initial rate); format: biochemical; details: tris hydrochloride buffer pH 8.4, room temperature, absorbance 405 nm; for IC50: read-out: Thrombin-inhibiting activity (pIC50) (converted)
# T2 construct: solution of human thrombin (a product of SIGMA Co.); purchased SIGMA Co
# Experimental: Determination of Thrombin-inhibiting Activity
# 130 μl of 100 mM tris hydrochloride buffer adjusted to pH 8.4 was added to 10 μl of an aqueous solution of a test compound. Then 10 μl of a solution of human thrombin (a product of SIGMA Co.) adjusted to 2 units/ml with tris hydrochloride buffer of pH 8.4 was added to the resultant mixture. After the incubation at room temperature for 10 minutes, 50 μl of a solution of D-phenylalanyl-L-pipecolyl-L-arginyl-P-nitroanilide dihydrochloride (S-2238; a product of Daiichi Kagaku Yakuhin Co.) adjusted to 0.4 mM with tris hydrochloride buffer of pH 8.4 was added thereto. The absorbance was determined and then the initial reaction rate was determined. A control was prepared in the same manner as that described above except that the solution of the compound to be tested was replaced with 10 μl of tris hydrochloride buffer adjusted to pH 8.4. The absorbance was determined with MICROPLATE READER Model 3550-UV (a product of […]) at a wave length of 405 nm at intervals of 15 seconds for 16 minutes.
IC50 [1],IC50 (human thrombin),Molecule,Activity of inhibiting activated blood coagulation factor X (pIC50) [1],Thrombin-inhibiting activity (pIC50) (human thrombin)
,,"N=C(N)c1ccc(CCCO)c(OCCNC(=O)C2CCN(c3ccncc3)CC2)c1.O=C(O)C(F)(F)F.O=C(O)C(F)(F)F [Compd. of Ex. 43, N-[2-(5-amidino-2-hydroxypropylphenoxy)ethyl]-1-(1-(1-pyridine-4-yl)piperidine)carboxamide bistrifluoroacetate]",7.8,<4.0
0.0158 µM,> 100 µM,"CC(=N)N1CCC(Oc2ccc(C(=O)NCCOc3cc(C(=N)N)ccc3O)cc2)CC1 [Compd. of Ex. 14, N-[2-(5-amidino-2-hydroxyphenoxy)ethyl]-4-(1-acetimidoyl-4-piperidyloxy)benzamide bistrifluoroacetate]",,
,,"N=C(N)c1ccc(CO)c(OCCNC(=O)C2CCN(c3ccncc3)CC2)c1.O=C(O)C(F)(F)F.O=C(O)C(F)(F)F [Compd. of Ex. 37, N-[2-(5-amidino-2-hydroxymethylphenoxy)ethyl]-1-(1-(1-pyridine-4-yl)piperidine)carboxamide bistrifluoroacetate]",7.3,<4.0
,,N-[2-(5-amidino-2-hydroxyphenoxy)ethyl]-1-(4-pyridyl)-4-piperidine-4-carboxamide bistrifluoroacetate [Compd. of Ex. 15],8,<4.0
,,"CC(=N)N1CCC(Oc2ccc(C(=O)NCCOc3cc(C(=N)N)ccc3CCC(=O)O)cc2)CC1.O=C(O)C(F)(F)F.O=C(O)C(F)(F)F [Compd. of Ex. 4, 3-[4-amidino-2-(2-(4-(1-(1-acetimidoyl)-4-piperidyloxy)benzoylamino)ethoxy)phenyl]propionic acid bistrifluoroacetate]",7.5,<3.0
,,3-[4-amidino-2-(2-((1-(1-methylpyridinium-4-yl)piperidine-4-carbonyl)amino)ethoxy)phenyl]-2-oxopropionic acid bistrifluoroacetate [Compd. of Ex. 52],7.1,4.2
0.0126 µM,> 100 µM,"N=C(N)c1ccc(O)c(OC[C@@H](CC(=O)O)NC(=O)C2CCN(c3ccncc3)CC2)c1 [Compd. of Ex. 29, (3R)-4-(5-amidino-2-hydroxyphenoxy)-3-[(1-(pyridine-4-yl)piperidine-4-carbonyl)amino]butanoic acid bistrifluoroacetate]",,
0.0631 µM,6.31 µM,"CCOC(=O)CCc1ccc(C(=N)N)cc1OCCNC(=O)C1CCN(c2ccncc2)CC1 [Compd. of Ex. 5, ethyl 3-[4-amidino-2-(2-((1-(pyridine-4-yl)piperidine-4-carbonyl)amino)ethoxy)phenyl]propionate bistrifluoroacetate]",,
,,"CC(=N)N1CCC(Oc2ccc(C(=O)N[C@@H](COc3cc(C(=N)N)ccc3CCC(=O)O)CC(=O)O)cc2)CC1.O=C(O)C(F)(F)F.O=C(O)C(F)(F)F [Compd. of Ex. 10, (3R)-4-[5-amidino-2-(2-carboxyethyl)phenoxy]-3-[4-(1-(1-acetimidoyl)-4-piperidyloxy)benzoylamino]butanoic acid bistrifluoroacetate]",7.4,<3.0
0.0158 µM,> 100 µM,"CC(=N)N1CCC(Oc2ccc(C(=O)N[C@@H](COc3cc(C(=N)N)ccc3O)CC(=O)O)cc2)CC1 [Compd. of Ex. 28, (3R)-4-(5-amidino-2-hydroxyphenoxy)-3-[4-(1-acetimidoyl-4-piperidyloxy)benzoylamino]butanoic acid bistrifluoroacetate]",,
,,3-[4-amidino-(2R)-2-((1-(pyridine-4-yl)piperidine-4-carbonyl)pyrrolidine-2-ylmethoxy)phenyl]propionic acid bistrifluoroacetate [Compd. of Ex. 26],7.8,<4.0
,,"COC(=O)c1ccc(C(=N)N)cc1OCCNC(=O)c1ccc(OC2CCN(C(C)=N)CC2)cc1.O=C(O)C(F)(F)F.O=C(O)C(F)(F)F [Compd. of Ex. 38, methyl 4-amidino-2-[2-(4-[1-(1-acetimidoyl)-4-piperidyloxy]benzoylamino)ethoxy]benzoate bistrifluoroacetate]",,3.3
,,ethyl (3R)-4-[5-amidino-2-(2-ethoxycarbonylethyl)phenoxy]-3-[4-(1-(1-acetimidoyl)-4-piperidyloxy)benzoylamino]butanoate bistrifluoroacetate [Compd. of Ex. 9],,5.5
,,CN1CCN=C1c1ccc(C(=O)NCCOc2cc(C(=N)N)ccc2CC(=O)C(=O)O)cc1.O=C(O)C(F)(F)F.O=C(O)C(F)(F)F [Compd. of Ex. 51],8.1,4.3
,,(3R)-3-[4-amidino-2-(3-ethoxycarbonyl-2-(4-(1-(1-acetimidoyl)-4-piperidyloxy)benzoylamino)propoxy)phenyl]acrylic acid bistrifluoroacetate [Compd. of Ex. 8],,<3.0
0.0251 µM,> 794 µM,"N=C(N)c1ccc(CCC(=O)O)c(OC[C@@H](CC(=O)O)NC(=O)C2CCN(c3ccncc3)CC2)c1 [Compd. of Ex. 13, (3R)-4-[5-amidino-2-(2-carboxyethyl)phenoxy]-3-[(1-(pyridine-4-yl)piperidine-4-carbonyl)amino]butanoic acid bistrifluoroacetate]",,
,,"CC(=N)N1CCC(Oc2ccc(C(=O)NCCOc3cc(C(=N)N)ccc3C=CC(=O)O)cc2)CC1.O=C(O)C(F)(F)F.O=C(O)C(F)(F)F [Compd. of Ex. 2, 3-[4-amidino-2-(2-(4-(1-(1-acetimidoyl)-4-piperidyloxy)benzoylamino)ethoxy)phenyl]acrylic acid bistrifluoroacetate]",,<3.0
,,N=C(N)c1ccc(CCC(=O)O)c(OCCNC(=O)C2CCN(c3ccncc3)CC2)c1.O=C(O)C(F)(F)F.O=C(O)C(F)(F)F [Compd. of Ex. 6],7.4,<3.0
